Assays:
[1] = molecular target: Peptidyl-prolyl cis-trans isomerase FKBP1A (Homo sapiens, UniProt P62942); assay: Binding affinity to FKBP12 by fluorescence polarization assay
[2] = molecular target: T1, Peptidyl-prolyl cis-trans isomerase FKBP5 (Homo sapiens, UniProt Q13451); assay: Binding affinity to FKBP51 FK1 domain by fluorescence polarization assay
T1 sequence (Q13451 whole entry): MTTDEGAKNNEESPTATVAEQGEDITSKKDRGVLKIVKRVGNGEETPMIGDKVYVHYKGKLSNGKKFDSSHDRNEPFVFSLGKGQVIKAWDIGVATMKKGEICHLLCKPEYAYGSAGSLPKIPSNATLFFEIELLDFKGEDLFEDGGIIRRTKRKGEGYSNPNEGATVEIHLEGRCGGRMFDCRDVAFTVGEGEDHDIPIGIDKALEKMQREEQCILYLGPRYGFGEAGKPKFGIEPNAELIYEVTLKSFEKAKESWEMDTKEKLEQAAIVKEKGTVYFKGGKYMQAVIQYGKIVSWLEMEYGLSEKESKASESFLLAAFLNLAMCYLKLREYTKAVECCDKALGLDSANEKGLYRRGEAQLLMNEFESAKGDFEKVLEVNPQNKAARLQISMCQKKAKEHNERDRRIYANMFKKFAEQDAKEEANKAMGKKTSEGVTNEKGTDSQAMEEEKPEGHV

[3] = molecular target: T2, Peptidyl-prolyl cis-trans isomerase FKBP4 (Homo sapiens, UniProt Q02790); assay: Binding affinity to FKBP52 FK1 domain by fluorescence polarization assay
T2 sequence (Q02790 whole entry): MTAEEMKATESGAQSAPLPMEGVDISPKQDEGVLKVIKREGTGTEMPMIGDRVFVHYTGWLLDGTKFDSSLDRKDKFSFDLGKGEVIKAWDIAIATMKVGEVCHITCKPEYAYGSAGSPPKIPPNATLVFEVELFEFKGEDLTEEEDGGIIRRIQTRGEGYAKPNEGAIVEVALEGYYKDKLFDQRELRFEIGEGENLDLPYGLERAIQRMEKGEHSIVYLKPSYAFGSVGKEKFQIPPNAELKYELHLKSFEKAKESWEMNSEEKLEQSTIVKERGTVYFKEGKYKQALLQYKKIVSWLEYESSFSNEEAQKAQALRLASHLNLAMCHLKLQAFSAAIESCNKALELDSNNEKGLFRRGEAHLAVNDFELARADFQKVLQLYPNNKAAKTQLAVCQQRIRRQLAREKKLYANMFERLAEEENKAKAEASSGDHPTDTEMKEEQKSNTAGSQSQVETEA

Chain of Peptidyl-prolyl cis-trans isomerase FKBP1A (P62942 whole entry, the tested form may be a part): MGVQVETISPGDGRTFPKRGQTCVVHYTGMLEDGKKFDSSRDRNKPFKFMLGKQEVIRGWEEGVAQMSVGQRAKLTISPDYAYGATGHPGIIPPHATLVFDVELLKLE

IC50 [1] [µM]	IC50 [2] [µM]	IC50 [3] [µM]	SMILES
0.05			COc1ccc(CC[C@@H](OC(=O)[C@@H]2CCCCN2C(=O)C(=O)[C@@]2(O)CCCC[C@@H]2C)c2cccc(OCC(=O)O)c2)cc1OC
1.24	> 100	> 100	CCC(C)(C)C(=O)C(=O)N1CCC[C@H]1C(=O)OCCCc1cccnc1 [GPI-1046]
0.13			CC[C@@H]1CCCC[C@@]1(O)C(=O)C(=O)N1CCCC[C@H]1C(=O)O[C@H](CCc1ccc(OC)c(OC)c1)c1cccc(OCC(=O)O)c1
0.06			COc1ccc(CC[C@@H](OC(=O)[C@@H]2CCCCN2C(=O)C(=O)[C@]2(O)CCCC[C@@H]2C)c2cccc(OCC(=O)O)c2)cc1OC (mixture of isomers)
3.38	> 100	> 100	CCC(C)(C)C(=O)C(=O)N1CCCC[C@H]1C(=O)NC(CCc1ccc(OC)c(OC)c1)c1cccc(OCC(=O)O)c1 (mixture of isomers)
0.55			CCC(C)(C)C(=O)C(=O)N1CC=CC[C@H]1C(=O)O[C@H](CCc1ccc(OC)c(OC)c1)c1cccc(OCC(=O)O)c1
0.17		10.5	CCC(C)(C)C(=O)C(=O)N1CCCC[C@H]1C(=O)O[C@H](CCc1ccc(OC)c(OC)c1)c1cccc(OCC(=O)O)c1
2.2	> 100	> 100	COc1ccc(CCOC(=O)[C@@H]2CCCCN2C(=O)C(=O)[C@]2(O)CCCC[C@H]2C)cc1OC (mixture of isomers)
17.1	> 100	> 100	CCC(C)(C)C(=O)C(=O)N1CCCC[C@H]1C(=O)OC
0.31	29.4	11.7	COc1ccc(OCCOC(=O)[C@@H]2CCCCN2C(=O)C(=O)[C@]2(O)CCCC[C@H]2C)cc1OC (mixture of isomers)
0.15			COc1ccc(CC[C@@H](OC(=O)[C@@H]2CCCCN2C(=O)C(=O)c2cc(OC)c(OC)c(OC)c2)c2cccc(OCC(=O)O)c2)cc1OC
0.51			COc1ccc(CC[C@@H](OC(=O)[C@@H]2CCCCN2C(=O)C(=O)[C@]2(O)CCCC[C@H]2CO)c2cccc(OCC(=O)O)c2)cc1OC
2.78	> 100	> 100	CC[C@@H]1CCCC[C@@]1(O)C(=O)C(=O)N1CCCC[C@H]1C(=O)OCCOc1ccc(OC)c(OC)c1 (mixture of isomers)
0.017	8.52	7.37	COc1cc(C(=O)C(=O)N2CCCC[C@H]2C(=O)OC(CCCc2cccnc2)CCCc2cccnc2)cc(OC)c1OC [BIRICODAR]
0.06			COc1ccc(CC[C@@H](OC(=O)[C@@H]2CCCCN2C(=O)C(=O)[C@]2(O)CCCC[C@H]2C)c2cccc(OCC(=O)O)c2)cc1OC
> 100	> 100	> 100	COc1cc(C(=O)C(=O)N(C)[C@@H](Cc2ccc(Cl)cc2)C(=O)N(Cc2ccccc2)C(CCc2ccncc2)CCc2ccncc2)cc(OC)c1OC [TIMCODAR]

IC50 [1] [µM]	IC50 [2] [µM]	IC50 [3] [µM]	SMILES
2.45	> 100	> 100	CCC(C)(C)C(=O)C(=O)N1CCCC[C@H]1C(=O)OCCOc1ccc(OC)c(OC)c1
	3.8	1.07	CCC(C)(C)C(=O)C(=O)N1CCCC[C@H]1C(=O)O[C@H](CCc1ccc(OC)c(OC)c1)c1cccc(N)c1
0.8			CCC(C)(C)C(=O)C(=O)N1CCC[C@H]1C(=O)O[C@H](CCc1ccc(OC)c(OC)c1)c1cccc(OCC(=O)O)c1
0.57			CC[C@H]1CCCC[C@@]1(O)C(=O)C(=O)N1CCCC[C@H]1C(=O)O[C@H](CCc1ccc(OC)c(OC)c1)c1cccc(OCC(=O)O)c1 (mixture of isomers)
0.06			COc1ccc(CC[C@@H](OC(=O)[C@@H]2CCCCN2C(=O)C(=O)[C@]2(O)CCCC[C@H]2C)c2cccc(OCC(=O)O)c2)cc1OC (mixture of isomers)
0.06			COc1ccc(CC[C@@H](OC(=O)[C@@H]2CCCCN2C(=O)C(=O)[C@@]2(O)CCCC[C@H]2C)c2cccc(OCC(=O)O)c2)cc1OC
0.32			CC[C@@H]1CCCC[C@@]1(O)C(=O)C(=O)N1CCCC[C@H]1C(=O)O[C@H](CCc1ccc(OC)c(OC)c1)c1cccc(OCC(=O)O)c1 (mixture of isomers)
1.05	15.3	5.55	CCC(C)(C)C(=O)C(=O)N1CCC[C@H]1C(=O)O[C@H](CCc1ccc(OC)c(OC)c1)c1cccc(OCCN2CCOCC2)c1
0.343			CC[C@H]1CCCC[C@]1(O)C(=O)C(=O)N1CCCC[C@H]1C(=O)O[C@H](CCc1ccc(OC)c(OC)c1)c1cccc(OCC(=O)O)c1
0.06			COc1ccc(CC[C@@H](OC(=O)[C@@H]2CCCCN2C(=O)C(=O)[C@]2(O)CCCC[C@H]2C)c2cccc(OCCN3CCOCC3)c2)cc1OC (mixture of isomers)
1.29	> 100	> 100	CCC(C)(C)C(=O)C(=O)N1CCSC[C@H]1C(=O)O[C@H](CCc1ccc(OC)c(OC)c1)c1cccc(OCC(=O)O)c1
2.11	> 150	> 150	CCC(C)(C)C(=O)C(=O)N1CCCC[C@H]1C(=O)OCCCc1cccnc1
0.47			CC[C@@H]1CCCC[C@@]1(O)C(=O)C(=O)N1CCCC[C@H]1C(=O)O[C@H](CCc1ccc(OC)c(OC)c1)c1cccc(OCCN2CCOCC2)c1 (mixture of isomers)
0.1		2.8	CCC(C)(C)C(=O)C(=O)N1CCCC[C@H]1C(=O)O[C@H](CCc1ccc(OC)c(OC)c1)c1cccc(OCCN2CCOCC2)c1
0.05			COc1ccc(CC[C@@H](OC(=O)[C@@H]2CCCCN2C(=O)C(=O)[C@]2(O)CCCC[C@@H]2C)c2cccc(OCC(=O)O)c2)cc1OC

Source: ChEMBL document CHEMBL2057129, “Evaluation of synthetic FK506 analogues as ligands for the FK506-binding proteins 51 and 52” (J Med Chem, 2012)
